# Measured values reported in PubChem BioAssay AID1259246 (Broad Institute, 2017).
# Inconclusive results are not listed. Activity calls are given as the source filed them.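 The calls were made as follows: active = valid dose-response fit whose half-maximal growth-inhibiting concentration is at or below a set limit above the top tested dose; inconclusive = flat fit with effect between 30 and 70%, or poor fit; inactive = half-maximal concentration above a set limit.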
# Assay: antibacterial activity against Clostridioides difficile – 10-point retest, dose response (AID 1259246)
# Settings: Clostridioides difficile clinical isolate growth, OD600, 24 h; at 60 µM (top of the series)
row,Compound,"activity change, negative = inhibition"
1,O=C(C[C@H]1C[C@@H]2c3cc(NC(=O)C4CCC4)ccc3O[C@@H]2[C@@H](CO)O1)NCc1ccccc1,6.59% (inactive)
2,CO[C@H]1CN(C)C(=O)c2ccc(NC(=O)c3ccc(-c4ccccc4)cc3)cc2OC[C@@H](C)NC[C@@H]1C,12.9% (inactive)
3,COCC#Cc1ccc2c(c1)O[C@H](CN(C)Cc1ccc3c(c1)OCO3)[C@H](C)CN([C@@H](C)CO)S2(=O)=O,6.47% (inactive)
4,COC(=O)[C@@H]1[C@@H](CO)[C@@H]2Cn3c(ccc(-c4cccc(F)c4)c3=O)[C@@H]2N1C(C)=O,9.82% (inactive)
5,COCC#Cc1ccc2c(c1)O[C@H](CN(C)Cc1ccc3c(c1)OCO3)[C@H](C)CN([C@H](C)CO)S2(=O)=O,10.3% (inactive)

# Same assay, conditions: Clostridioides difficile clinical isolate growth, OD600, 24 h; at 120 µM (top of the series)
row,Compound,"activity change, negative = inhibition"
1,C[C@H]1CN([C@@H](C)CO)C(=O)Cc2cc(NC(=O)CCCN(C)C)ccc2O[C@H]1CN(C)Cc1ccc(-c2ccccc2)cc1,20.8% (inactive)
2,COc1ccc(CN2C[C@@H](C)[C@H](OC)CN(C)C(=O)c3ccc(NC(=O)c4nc5ccccc5s4)cc3OC[C@H]2C)cc1,22.7% (inactive)
3,COc1ccc(NC(=O)Nc2cccc3c2O[C@@H](CN(C)Cc2ccc(Oc4ccccc4)cc2)[C@@H](C)CN([C@H](C)CO)C3=O)cc1,38.3% (inactive)
4,COc1ccc(S(=O)(=O)N(C)C[C@@H]2Oc3ccc(NC(=O)CCCN(C)C)cc3CC(=O)N([C@@H](C)CO)C[C@H]2C)cc1,-5.12% (inactive)
5,Cc1ccc(-c2ccc3c(c2)O[C@@H](CN(C)Cc2ccncc2)[C@H](C)CN([C@@H](C)CO)S3(=O)=O)cc1,21.6% (inactive)
6,CC(C)CC#Cc1ccc2c(c1)O[C@H](CN(C)CC1CCOCC1)[C@H](C)CN([C@@H](C)CO)S2(=O)=O,15.6% (inactive)
7,CO[C@H]1CN(C)C(=O)c2cc(NC(=O)c3ccc(Oc4ccccc4)cc3)ccc2OC[C@H](C)NC[C@H]1C,31.6% (inactive)
8,C[C@@H]1CN([C@@H](C)CO)C(=O)Cc2cc(N(C)C)ccc2O[C@@H]1CN(C)Cc1ccc(Oc2ccccc2)cc1,12.4% (inactive)
9,C[C@@H]1CN([C@H](C)CO)C(=O)c2cccc(NC(=O)Nc3ccccc3)c2O[C@@H]1CN(C)Cc1ccc(Oc2ccccc2)cc1,32.9% (inactive)
10,CO[C@@H]1CN(C)C(=O)c2ccc(NC(=O)c3nc4ccccc4s3)cc2OC[C@@H](C)NC[C@H]1C,-7.73% (inactive)
11,COc1ccc(NC(=O)Nc2cccc3c2O[C@@H](CN(C)Cc2ccc(Oc4ccccc4)cc2)[C@H](C)CN([C@@H](C)CO)C3=O)cc1,18.2% (inactive)
12,C[C@@H]1CN([C@@H](C)CO)C(=O)c2cccc(NC(=O)Nc3ccc4c(c3)OCO4)c2O[C@@H]1CN(C)C(=O)Nc1cccc2ccccc12,6.09% (inactive)
13,CC(C)CC#Cc1ccc2c(c1)O[C@@H](CN(C)Cc1cccnc1)[C@H](C)CN([C@@H](C)CO)S2(=O)=O,29.9% (inactive)
14,C[C@@H]1CN([C@H](C)CO)C(=O)Cc2cc(NC(=O)C3CC3)ccc2O[C@@H]1CN(C)Cc1ccccc1,-3.71% (inactive)
15,CO[C@@H]1CN(C)C(=O)c2ccc(NC(=O)C3CCC3)cc2OC[C@@H](C)N(Cc2ccncc2)C[C@H]1C,-0.707% (inactive)
16,C[C@@H]1CN([C@@H](C)CO)C(=O)c2cccc(NC(=O)Nc3ccccc3)c2O[C@H]1CN(C)Cc1ccc(Oc2ccccc2)cc1,26.1% (inactive)
17,O=C(C[C@H]1C[C@H]2c3cc(NC(=O)Nc4ccc(F)cc4)ccc3O[C@H]2[C@H](CO)O1)NC1CCCCC1,2.71% (inactive)
18,CO[C@H]1CN(C)C(=O)c2cc(NC(=O)c3ccc(-c4ccccc4)cc3)ccc2OC[C@H](C)NC[C@H]1C,25.8% (inactive)
19,C[C@@H]1CN([C@@H](C)CO)S(=O)(=O)c2ccc(/C=C/c3ccccc3)cc2O[C@H]1CN(C)C(=O)c1ccccc1,18.9% (inactive)

row,Compound,"activity change, negative = inhibition"
1,C[C@H]1CN([C@@H](C)CO)S(=O)(=O)c2ccc(Br)cc2O[C@@H]1CN(C)Cc1cccnc1,-0.003% (inactive)
2,C[C@@H]1CN([C@@H](C)CO)S(=O)(=O)c2ccc(Br)cc2O[C@H]1CN(C)Cc1cccnc1,2.31% (inactive)
3,C[C@@H]1CCCCO[C@H](CN(C)S(=O)(=O)c2ccc(F)cc2)[C@H](C)CN([C@@H](C)CO)C(=O)c2cc(NC(=O)Nc3cccc4ccccc34)ccc2O1,22.9% (inactive)
4,C[C@H](CO)N1C[C@H](C)[C@H](CN(C)Cc2ccc(-c3ccccc3)cc2)Oc2c(NC(=O)Nc3ccc4c(c3)OCO4)cccc2C1=O,24.3% (inactive)
5,O=C(C[C@H]1C[C@H]2c3cc(NC(=O)C4CCC4)ccc3O[C@H]2[C@@H](CO)O1)NCc1ccc(Cl)cc1,2.85% (inactive)
6,C[C@@H]1CN([C@@H](C)CO)S(=O)(=O)c2ccc(/C=C/c3ccccc3)cc2O[C@H]1CN(C)C(=O)Nc1ccc(F)cc1,32.6% (inactive)
7,CO[C@H]1CN(C)C(=O)c2cc(NC(=O)c3nc4ccccc4s3)ccc2OC[C@@H](C)N(Cc2ccncc2)C[C@H]1C,5.99% (inactive)
8,C[C@@H]1CN([C@@H](C)CO)C(=O)Cc2cc(NC(=O)C3CC3)ccc2O[C@@H]1CN(C)Cc1ccc(Oc2ccccc2)cc1,21.3% (inactive)
9,CO[C@H]1CN(C)C(=O)c2cc(NC(=O)c3nc4ccccc4s3)ccc2OC[C@@H](C)N(Cc2ccncc2)C[C@@H]1C,5.15% (inactive)
10,O=C(C[C@@H]1C[C@@H]2c3cc(NC(=O)Nc4ccccc4)ccc3O[C@@H]2[C@@H](CO)O1)NC1CCCC1,2.79% (inactive)
11,CC(C)CC#Cc1ccc2c(c1)O[C@H](CN(C)Cc1ccccc1F)[C@H](C)CN([C@H](C)CO)S2(=O)=O,21.7% (inactive)
12,CO[C@H]1CN(C)C(=O)c2ccc(NC(=O)c3ccc(-c4ccccc4)cc3)cc2OC[C@@H](C)NC[C@H]1C,31.5% (inactive)
13,C[C@@H]1CN([C@H](C)CO)C(=O)c2cc(NC(=O)Nc3ccc(F)cc3)ccc2O[C@@H](C)CCCCO[C@H]1CN(C)C(=O)c1ccccc1,41% (inactive)
14,C[C@@H]1CCCCO[C@@H](CN(C)S(=O)(=O)c2ccc(F)cc2)[C@H](C)CN([C@H](C)CO)C(=O)c2cc(NC(=O)Nc3cccc4ccccc34)ccc2O1,34.2% (inactive)
15,C[C@@H]1CN([C@H](C)CO)S(=O)(=O)c2ccc(C3=CCCCC3)cc2O[C@H]1CN(C)Cc1cccnc1,19% (inactive)
16,C[C@@H]1CN([C@@H](C)CO)C(=O)Cc2cc(NC(=O)CCCN(C)C)ccc2O[C@H]1CN(C)C(=O)Nc1ccccc1,-1.61% (inactive)
17,COc1ccc(NC(=O)Nc2ccc3c(c2)[C@H]2C[C@H](CC(=O)NCc4ccccc4F)O[C@@H](CO)[C@H]2O3)cc1,3.92% (inactive)
18,C[C@H](CO)N1C[C@H](C)[C@@H](CN(C)Cc2ccc(-c3ccccc3)cc2)Oc2ccc(NC(=O)C3CC3)cc2CC1=O,25.6% (inactive)
19,C[C@@H]1CN([C@H](C)CO)S(=O)(=O)c2ccc(C#CCN(C)C)cc2O[C@@H]1CN(C)Cc1ccc(F)cc1,0.874% (inactive)

# Same assay, conditions: Clostridioides difficile clinical isolate growth, OD600, 24 h; at 135 µM (top of the series)
row,Compound,"activity change, negative = inhibition"
1,C[C@@H]1CN([C@H](C)CO)C(=O)Cc2cc(NS(C)(=O)=O)ccc2O[C@@H]1CN(C)Cc1ccc(-c2ccccc2)cc1,20% (inactive)
2,C[C@@H]1CN([C@@H](C)CO)C(=O)Cc2cc(NC(=O)Nc3ccccc3)ccc2O[C@@H]1CN(C)Cc1ccc(-c2ccccc2)cc1,23.5% (inactive)
3,CNC[C@H]1Oc2ccc(NC(=O)C3CC3)cc2CC(=O)N([C@@H](C)CO)C[C@H]1C,-0.275% (inactive)
4,CO[C@H]1CN(C)C(=O)c2cc(NC(=O)c3ccc(-c4ccccc4)cc3)ccc2OC[C@H](C)NC[C@H]1C,102% (inactive)
5,C[C@@H]1CN([C@H](C)CO)C(=O)Cc2cc(NC(=O)C3CC3)ccc2O[C@H]1CN(C)C,32.9% (inactive)
6,COc1ccc(-c2ccc([C@H]3[C@H](C#N)N(C(=O)C4CC4)[C@H]3CO)cc2)cc1,-0.086% (inactive)
7,C[C@H]1CN([C@@H](C)CO)C(=O)Cc2cc(NC(=O)C3CC3)ccc2O[C@@H]1CN(C)Cc1ccc(-c2ccccc2)cc1,17.1% (inactive)
8,C[C@H]1CN([C@@H](C)CO)C(=O)c2cccc(NC(=O)Nc3ccc4c(c3)OCO4)c2O[C@H]1CN(C)Cc1ccc(-c2ccccc2)cc1,24.8% (inactive)
9,O=C(C[C@@H]1C[C@@H]2c3cc(NS(=O)(=O)c4ccc(F)cc4)ccc3O[C@@H]2[C@@H](CO)O1)NCc1ccc(-c2ccccc2)cc1,18.3% (inactive)
10,C[C@@H]1CN([C@@H](C)CO)C(=O)Cc2cc(NC(=O)C3CC3)ccc2O[C@@H]1CN(C)Cc1ccc(Cl)c(Cl)c1,16.4% (inactive)
11,O=C(Nc1ccc(-c2ccccc2)cc1)[C@H]1[C@H](CO)[C@H]2Cn3c(cccc3=O)[C@H]2N1CC1CCCCC1,32.6% (inactive)
12,C[C@@H]1CCCCO[C@@H](CN(C)S(=O)(=O)c2ccc(F)cc2)[C@@H](C)CN([C@H](C)CO)C(=O)c2cc(NC(=O)Nc3cccc4ccccc34)ccc2O1,14.6% (inactive)
13,C[C@@H]1CN([C@H](C)CO)C(=O)c2cc(NC(=O)Nc3ccc4c(c3)OCO4)ccc2O[C@H]1CN(C)Cc1ccccc1,-5.34% (inactive)
14,COc1ccc(S(=O)(=O)N(C)C[C@H]2Oc3ccc(NC(=O)C4CC4)cc3CC(=O)N([C@H](C)CO)C[C@H]2C)cc1,-2.76% (inactive)
15,C[C@H](CO)N1C[C@H](C)[C@H](CN(C)Cc2ccc(F)cc2)Oc2ncc(-c3cc4ccccc4o3)cc2C1=O,52.5% (inactive)
16,C[C@@H]1CN([C@@H](C)CO)C(=O)Cc2cc(NC(=O)CCCN(C)C)ccc2O[C@H]1CN(C)C,-6.21% (inactive)
17,O=C(C[C@@H]1C[C@H]2c3cc(NC(=O)C4CCC4)ccc3O[C@H]2[C@@H](CO)O1)NCc1ccc(Cl)cc1,6.13% (inactive)
